Values of other authors as cited in patent US20190070181A1, “FORMULATION OF TICAGRELOR OR PHARMACEUTICALLY ACCEPTABLE SALT THEREOF” (Jiangsu Hengrui Medicine Co., Ltd., priority 2017, published 2019).

What was measured:
[1] = not given; remark: listed apart in the source

average t1/2 (in vivo)	dose up to which the pharmacokinetics is linear (in vivo)	median tmax (oral administration)	average recovery of the radiation in feces (radiolabeled ticagrelor, feces) [%]	average recovery of the radiation (radiolabeled ticagrelor, total)	average recovery of the radiation in urine (radiolabeled ticagrelor, urine) [%]	solubility in water [1]	SMILES	time the IPA effect can be maintained (platelet aggregation; 180 mg loading dose) [h]	IPA maximum (platelet aggregation; 2-4 hours after 180 mg loading dose) [%]	mean inhibition of platelet aggregation (IPA) (platelet aggregation; 0.5 hour after 180 mg loading dose) [%]
about 9 hours							CCCSc1nc(N[C@@H]2C[C@H]2c2ccc(F)c(F)c2)c2nnn([C@@H]3C[C@H](O)[C@@H](O)[C@H]3O)c2n1 [AR-C124910XX]			
about 7 hours	up to 1260 mg	about 1.5 hours	58	about 84%	26	almost insoluble in water	CCCSc1nc(N[C@@H]2C[C@H]2c2ccc(F)c(F)c2)c2nnn([C@@H]3C[C@H](OCCO)[C@@H](O)[C@H]3O)c2n1 [ticagrelor, (1S,2S,3R,5S)-3-[7-{[(1R,2S)-2-(3,4-difluorophenyl)cyclopropyl]amino}-5-(propylthio)-3H-[1,2,3]-triazolo[4,5-d]pyrimidin-3-yl]-5-(2-hydroxyethoxy)cyclopentane-1,2-diol]	2 to 8	89	41
